In patent publication US4681871A, “Pharmacologically active peptides” (priority 1979, dated 1987):
Ends that are not written are not given here. Peptide text beside a SMILES is read from it.

Experiments:
[1] = system: longitudinal muscle plexusmyentericus preparation of guinea pig ileum; experiment: opiate-like activity on electrically stimulated guinea pig ileum preparation; type: cell-based; details: guinea pig intestine preparation; naloxon-reversible restriction of contractions
Pronase E (Merck) = experiment: resistance against proteases (Pronase E incubation, then opiate test); type: in vitro ADME; details: 0.02 mg Pronase E, tris-buffer pH 8, 37° C., 1 to 4 hours; compared with control without enzyme
Method: As proof of the resistance against proteases we would like to cite an example: 0.3 mg β-casomorphin-7 was incubated in 0.6 ml tris-buffer pH 8 with 0.02 mg Pronase E (Merck) at 37° C. for 1 to 4 hours. After the end of the incubation, the mixture, for the purpose of destroying the Pronase, was heated at 95° C. for 15 minutes.

| Compound | opiate-like activity [1] | loss of opiate activity after protease incubation (Pronase E (Merck)) |
| --- | --- | --- |
| COC(=O)CNC(=O)[C@@H]1CCCN1C(=O)[C@H](Cc1ccccc1)NC(=O)[C@@H]1CCCN1C(=O)[C@@H](N)Cc1ccc(O)cc1 [Tyr-Pro-Phe-Pro-Gly-methyl ester] (H-YPFPG-OMe) | strong specific opiate-like activity | – |
| COC(=O)CNC(=O)[C@@H]1CCCN1C(=O)[C@H](Cc1ccccc1)NC(=O)[C@@H]1CCCN1 [end product 4b, Pro-Phe-Pro-Gly-metester] (H-PFPG-OMe) | did not result in any opiate-like activity | – |
| YPFPGPI [β-casomorphin-7, Tyr-Pro-Phe-Pro-Gly-Pro-Ile] | – | did not result in any loss of opiate activity |
| casein | neither the casein itself nor its chloroform/methanol (65/35, vol/vol) extracts, shows a pharmacological, in this case an opiate-like, activity | – |
| methionine-enkephalin [reference compound] | – | completely lost the opiate activity |
